Key:
[1] = tested on: aggressivity of killer rats; test: Aggressivity of killer rats; type: in vivo, male rats; settings: for inhibition in vivo at 25 mg/kg: 25 mg/kg i.p.; for inhibition in vivo at 20 mg/kg: 20 mg/kg i.p.; for antiaggressive properties: conclusion from Table V
Excerpt: If, under certain conditions, male rats are kept alone in individual cages for several weeks, the become spontaneously aggressive towards any mouse, which they kill as soon as it is placed in the same cage. Mice were introduced one after another into cages containing an isolated rat and a selection was made of the rats which immediately killed three mice. In this way batches of 6 to 8 rats were constituted. The rats were then given the compound to be studied by intraperitoneal route in such a way that each batch received a higher dose than the preceding batch. […] Table V which follows contains the results obtained 30 minutes after administration of the compound to be studied.

reserpine-induced ptosis = test: Reserpine-induced ptosis in the rat; type: in vivo, male rats of the CF1 strain; settings: reserpine 5 mg/kg i.p., score scale 0-4, mean to 6th hour vs controls
Experimental: (§2) The thymoanaleptic properties of the compounds of the invention were determined by means of reserpine-induced ptosis and hypothermia in the rat.
An intraperitoneal dose of 5 mg/kg of reserpine was administered to batches of 5 male rats of the CF1 strain weighing an average of 300 g.
Thirty minutes later a dose of the compound to be studied was given by oral route and the inhibitory effect of the reserpine was noted every hour up to the sixth hour. Ptosis was evaluated for each eye in accordance with the following scale:
4 : eyelids completely closed.
The difference between these two averages represents the average decrease of the ptosis in the treated animals as compared to the controls.

toxicity of yohimbine = test: Potentiation of the toxicity of yohimbine (test of QUINTON); type: in vivo, male mice; settings: yohimbine hydrochloride 25 mg/kg i.p.; for mortality at 50 mg/kg: Mus musculus, 50 mg/kg oral, mortality after 24 hours
Experimental: Yohimbine is a substance which provokes an increase in the serotonine level in the brain or a decrease in norepinephrine according to the author.
For this purpose, the test of QUINTON was used which is described in Brit. J. Pharmacol. 21, 51 (1963). […] […] The percentage of mortality was noted after 24 hours.
Table III hereunder expresses the percentage of potentiation of the toxicity due to yohimbine in comparison with the controls.
The percentage in question was determined 24 hours after the administration of yohimbine.

[2] = tested on: reserpine-induced hypothermia; test: Reserpine-induced hypothermia in the rat; type: in vivo, male rats CF1; settings: reserpine 5 mg/kg i.p., mean to 6th hour vs controls
Experimental: as §2
An intraperitoneal dose of 5 mg/kg of reserpine was administered to batches of 5 male rats CF1 weighing an average of 300 g. Thirty minutes later, the rectal temperature was determined and then a dose of the compound to be tested was given by oral route, except to the control animals. The rectal temperature of all the animals including the controls was taken every hour up to the 6th hour.
The difference between these two averages enabled an estimation to be made regarding the antagonistic effect of the compounds of the invention on the hypothermia induced by reserpine.

[3] = tested on: stereotypies induced by amphetamine; test: Potentiation of the stereotypies induced by amphetamine; type: in vivo, rats
Experimental: It is commonly admitted that amphetamine induces stereotypies by stimulating the dopaminergic receptors and inhibiting the re-uptake of dopamine into the neuron.
The thymoanaleptics potentiate these stereotypies.
Thirty minutes later, a dose of 10 mg/kg of the compound to be tested was given by oral route. Note was taken of the intensity of the stereotypies every 30 minutes for 150 minutes in accordance with the following scale which indicates the behaviour of the animal.
0 : the rat is motionless and asleep
1 : the rat is motionless and awake
3 : the rat stands on its hind paws and sniffs the lid of its cage in a stereotyped manner.
4 : the rat licks the walls of its cage in a stereotyped manner
5 : the rat bites the bars of its cage or sniffs the shavings of its litter in a stereotyped manner
6 : the rat chews the shavings in a stereotyped manner
The average of the 5 results obtained for each batch was calculated and compared with the average obtained with the control animals.
The difference between these averages represents the mean increase of the steroetypies of the treated animals in comparison with the controls.

neuromuscular functions = test: Rotarod test of BOISSIER / neuromuscular functions; type: in vivo, mouse; settings: up to 40 mg/kg oral, for 3 hours after administration
[4] = Toxicity, method of KARBER and BEHRENS, rats; settings: rat, in vivo, rats, after 48 hours
Experimental: (§1) Finally, tests of toxicity were performed with compounds of the invention following the method of KARBER and BEHRENS.

spontaneous motricity = test: Spontaneous motricity in the mouse; type: in vivo; settings: 50 mg/kg intragastric, mouse
Experimental: Tests were also performed with a view to determining whether the compounds of the invention modify spontaneous motricity.

[5] = Toxicity, method of KARBER and BEHRENS, mice; settings: mouse, in vivo, mice, after 48 hours
Experimental: as §1

[6] = Rattus norvegicus, ip, 0.5 h, 30 minutes after administration
[7] = 10 mg/kg oral, amphetamine 10 mg/kg i.p., every 30 min for 150 min
[8] = 20 mg/kg, same conditions (amphetamine 10 mg/kg i.p.)

Structure (SMILES): Cc1oc2ccccc2c1OCC(N)=NO [Compound 12, 2-(2-Methyl-3-benzofuryloxy)-acetamidoxime]
- inhibition in vivo at 25 mg/kg [1, 6]: 27%
- Average decrease of Ptosis (reserpine-induced ptosis; 10 mg/kg oral): 0.7

Structure (SMILES): Cc1oc2cc(OC(C)(C)C(N)=NO)ccc2c1C [Compound 4, 2-(2,3-Dimethyl-6-benzofuryloxy)-2-methyl-propionamidoxime]
- mortality at 50 mg/kg (toxicity of yohimbine): 30%
- Average inhibition of hypothermia (positive °C) ([2]; 10 mg/kg oral): 0.6 °C
- Average increase of the stereotypies [3, 7]: 0.8
- inhibition in vivo at 25 mg/kg [1, 6]: 25%
- Average decrease of Ptosis (reserpine-induced ptosis; 10 mg/kg oral): 2.1

Structure (SMILES): CC(C)(Oc1cccc2ccoc12)C(N)=NO [Compound 30, 2-(7-Benzofuryloxy)-2-methyl-propionamidoxime]
- Average inhibition of hypothermia (positive °C) ([2]; 100 mg/kg oral): 1 °C
- Average increase of the stereotypies [3, 8]: 6.5
- inhibition in vivo at 20 mg/kg [1, 6]: 75%
- Average decrease of Ptosis (reserpine-induced ptosis; 100 mg/kg oral): 2.3

Structure (SMILES): CC(Oc1cccc2ccoc12)C(N)=NO (stereo not shown) [Compound 2, 2-(7-Benzofuryloxy)-propionamidoxime]
- damage to the neuromuscular functions (neuromuscular functions): did not cause any damage to the neuromuscular functions up to 40 mg/kg
- mortality at 50 mg/kg (toxicity of yohimbine): 50%
- Average inhibition of hypothermia (positive °C) ([2]; 100 mg/kg oral): 0.8 °C
- Average increase of the stereotypies ([3]; 0.05 mg/kg intragastric, 150 minutes): 9
- Average increase of the stereotypies [3, 7]: 9
- LD50 at 48 h ([4]; ip, intraperitoneal): 62.5 mg/kg
- LD50 at 48 h ([4]; oral): 440 mg/kg
- inhibition in vivo at 20 mg/kg [1, 6]: 50%
- influence on spontaneous motricity (spontaneous motricity): no influence on the spontaneous motricity
- LD50 at 48 h ([5]; ip, intraperitoneal): 68 mg/kg
- LD50 at 48 h ([5]; oral): 170 mg/kg
- Average decrease of Ptosis (reserpine-induced ptosis; 10 mg/kg oral): 2.4

Structure (SMILES): CCC(Oc1cccc2c1OCCO2)C(N)=NO (stereo not shown) [Compound 14, 2-[(1,4-Benzodioxanyl)-5-oxy]-butyramidoxime]
- Average inhibition of hypothermia (positive °C) ([2]; 10 mg/kg oral): 0.4 °C
- Average increase of the stereotypies [3, 7]: 4.2
- inhibition in vivo at 25 mg/kg [1, 6]: 80%
- Average decrease of Ptosis (reserpine-induced ptosis; 10 mg/kg oral): 0.6

Structure (SMILES): NC(COc1ccc2occc2c1)=NO [Compound 5, 2-(5-Benzofuryloxy)-acetamidoxime]
- mortality at 50 mg/kg (toxicity of yohimbine): 10%
- Average inhibition of hypothermia (positive °C) ([2]; 10 mg/kg oral): 0.5 °C
- inhibition in vivo at 25 mg/kg [1, 6]: 60%
- Average decrease of Ptosis (reserpine-induced ptosis; 10 mg/kg oral): 1.9

Structure (SMILES): Cc1cc2cc(OCC(N)=NO)ccc2o1 [Compound 33, 2-(2-Methyl-5-benzofuryloxy)-acetamidoxime]
- Average increase of the stereotypies [3, 8]: 4
- inhibition in vivo at 20 mg/kg [1, 6]: 60%
- Average decrease of Ptosis (reserpine-induced ptosis; 100 mg/kg oral): 2.0

Structure (SMILES): CC(Oc1cccc2c1OCC2)C(N)=NO (stereo not shown) [Compound 9, 2-(2,3-Dihydro-7-benzofuryloxy)-propionamidoxime]
- mortality at 50 mg/kg (toxicity of yohimbine): 10%
- Average inhibition of hypothermia (positive °C) ([2]; 10 mg/kg oral): 0.5 °C
- Average increase of the stereotypies [3, 7]: 6.2
- influence on spontaneous motricity (spontaneous motricity): no influence on the spontaneous motricity
- Average decrease of Ptosis (reserpine-induced ptosis; 10 mg/kg oral): 1.3

Structure (SMILES): CCC(Oc1cccc2ccccc12)C(N)=NO (stereo not shown) [Compound 34]
- mortality at 50 mg/kg (toxicity of yohimbine): 10%
- Average inhibition of hypothermia (positive °C) ([2]; 10 mg/kg oral): 1.1 °C
- inhibition in vivo at 1 mg/kg ([1]; Rattus norvegicus, ip, 0.5 h, 1 mg/kg i.p., 30 minutes after administration): 100%
- antiaggressive properties [1]: powerful antiaggressive properties

Structure (SMILES): NC(COc1cccc2sccc12)=NO [Compound 26, 2-(4-Benzothienyloxy)-acetamidoxime]
- Potentiation of the toxicity of yohimbine (toxicity of yohimbine; 20 mg/kg oral, 24 hours): 50%
- Mean increase of the stereotypies ([3]; 20 mg/kg oral, 5 mg/kg of amphetamine): 6.8
- inhibition in vivo at 25 mg/kg [1, 6]: 27%
- Average decrease of Ptosis (reserpine-induced ptosis; 20 mg/kg oral): 1.4

Structure (SMILES): NC(CCOc1cccc2ccccc12)=NO [Compound 6, 3-(1-Naphthyloxy)-propionamidoxime]
- mortality at 50 mg/kg (toxicity of yohimbine): 30%
- inhibition in vivo at 25 mg/kg [1, 6]: 30%
- Average decrease of Ptosis (reserpine-induced ptosis; 10 mg/kg oral): 1.5

Structure (SMILES): NC(CCOc1ccc2ccccc2c1)=NO [Compound 18, 3-(2-Naphthyloxy)-propionamidoxime]
- mortality at 50 mg/kg (toxicity of yohimbine): 10%
- inhibition in vivo at 25 mg/kg [1, 6]: 100%
- antiaggressive properties [1]: powerful antiaggressive properties
- Average decrease of Ptosis (reserpine-induced ptosis; 10 mg/kg oral): 0.4

Structure (SMILES): CCc1oc2ccccc2c1OC(C)(C)C(N)=NO [Compound 46, 2-(2-Ethyl-3-benzofuryloxy)-2-methyl-propionamidoxime]
- mortality at 50 mg/kg (toxicity of yohimbine): 10%
- Average increase of the stereotypies [3, 7]: 6.6
- inhibition in vivo at 25 mg/kg [1, 6]: 100%

Structure (SMILES): NC(CCOc1cccc2ccoc12)=NO [Compound 8, 3-(7-Benzofuryloxy)-propionamidoxime]
- mortality at 50 mg/kg (toxicity of yohimbine): 30%
- Average inhibition of hypothermia (positive °C) ([2]; 10 mg/kg oral): 0.4 °C
- Average increase of the stereotypies [3, 7]: 5.6
- inhibition in vivo at 25 mg/kg [1, 6]: 70%
- influence on spontaneous motricity (spontaneous motricity): no influence on the spontaneous motricity
- Average decrease of Ptosis (reserpine-induced ptosis; 10 mg/kg oral): 1.3

Structure (SMILES): CC(Oc1cccc2occc12)C(N)=NO (stereo not shown) [Compound 3, 2-(4-Benzofuryloxy)-propionamidoxime]
- mortality at 50 mg/kg (toxicity of yohimbine): 40%
- Average inhibition of hypothermia (positive °C) ([2]; 20 mg/kg oral): 1 °C
- Average increase of the stereotypies [3, 7]: 8.6
- inhibition in vivo at 20 mg/kg [1, 6]: 89%
- influence on spontaneous motricity (spontaneous motricity): no influence on the spontaneous motricity
- LD50 at 48 h ([5]; ip, intraperitoneal): 68 mg/kg
- Average decrease of Ptosis (reserpine-induced ptosis; 10 mg/kg oral): 2.1

From patent US3984470A, “Amidoxime derivatives and process for preparing the same” (priority 1974, dated 1976)
